In PMC9027910, “Synthesis and Antimycobacterial Evaluation of N-(4-(Benzyloxy)benzyl)-4-aminoquinolines” (Molecules, 2022):

Experiments:
M. tuberculosis H37Rv = test: Minimum inhibitory concentration (resazurin microplate); format: cell-based, Mycobacterium tuberculosis; conditions: for MIC: Mycobacterium tuberculosis, M. tuberculosis H37Rv, 7 days + 48 h resazurin, highest value of three assays; for Activity against M. tuberculosis H37Rv in words: at the highest concentrations evaluated

Row | SMILES | melting point | MIC (M. tuberculosis H37Rv) | Activity against M. tuberculosis H37Rv in words (M. tuberculosis H37Rv) | Fold reduction of activity versus 9n and 9o (M. tuberculosis H37Rv; MIC of unsubstituted benzyloxy compound versus 4-halogenated 9n, 9o) | Fold higher MIC than 9n (M. tuberculosis H37Rv; MIC ratio versus methylated analogue 9n)
1 | COc1cc(COc2ccc(CNc3cc(C)nc4ccc(OC)cc34)cc2)cc(OC)c1 [Compound 9z, N-(4-((3,5-dimethoxybenzyl)oxy)benzyl)-6-methoxy-2-methylquinolin-4-amine] | 164 to 166 °C | 11.2 µM |  |  | 
2 | Cc1cc(NCc2ccc(OCc3ccc(C(C)C)cc3)cc2)c2cc(Br)ccc2n1 [Compound 9q, N-(4-((4-isopropylbenzyl)oxy)benzyl) 6-bromo-2-methylquinolin-4-amine] | 135 to 137 °C | 5.3 µM |  |  | 
3 | CCc1cc(NCc2ccc(OCc3ccccc3)cc2)c2cc(Br)ccc2n1 [Compound 9s, N-(4-(benzyloxy)benzyl)-6-bromo-2-ethylquinolin-4-amine] | 136 to 138 °C | 5.6 µM |  |  | 
4 | COc1cc(COc2ccc(CNc3cc(C)nc4ccccc34)cc2)cc(OC)c1 [Compound 9f, N-(4-((3,5-dimethoxybenzyl)oxy)benzyl)-2-methylquinolin-4-amine] | 134 to 136 °C | 12.1 µM |  |  | 
5 | Cc1cc(NCc2ccc(OCc3ccc(C(C)C)cc3)cc2)c2cc(Cl)ccc2n1 [Compound 9k, N-(4-((4-isopropylbenzyl)oxy)benzyl)-6-chloro-2-methylquinolin-4-amine] | 126 to 128 °C | 5.8 µM |  |  | 
6 | Cc1cc(NCc2ccc(OCc3ccccc3)cc2)c2ccccc2n1 [Compound 9a, N-(4-(benzyloxy)benzyl)-2-methylquinolin-4-amine] | 134 to 136 °C | > 7 µM | inactive |  | 
7 | COc1ccc2nc(C)cc(NCc3ccc(OCc4ccc(F)cc4)cc3)c2c1 [Compound 9x, N-(4-((4-fluorobenzyl)oxy)benzyl)-6-methoxy-2-methylquinolin-4-amine] | 141 to 143 °C | 12.4 µM |  |  | 
8 | Cc1cc(NCc2ccc(OCc3ccccc3)cc2)c2cc(Br)ccc2n1 [Compound 9m, N-(4-(benzyloxy)benzyl)-6-bromo-2-methylquinolin-4-amine] | 164 to 166 °C | 5.8 µM |  | more than 2 fold | 
9 | Cc1cc(NCc2ccc(OCc3ccccc3)cc2)c2cc(Cl)ccc2n1 [Compound 9g, N-(4-(benzyloxy)benzyl)-6-chloro-2-methylquinolin-4-amine] | 165 to 167 °C | 6.4 µM |  |  | 
10 | CCc1cc(NCc2ccc(OCc3ccccc3)cc2)c2cc(OC)ccc2n1 [Compound 9aa, N-(4-(benzyloxy)benzyl)-2-ethyl-6-methoxyquinolin-4-amine] | 118 to 120 °C | 12.5 µM |  |  | 
11 | Cc1cc(NCc2ccc(OCc3ccc(F)cc3)cc2)c2ccccc2n1 [Compound 9c, N-(4-((4-fluorobenzyl)oxy)benzyl)-2-methylquinolin-4-amine] | 134 to 136 °C | 26.8 µM |  |  | 
12 | COc1ccc2nc(C)cc(NCc3ccc(OCc4ccc(Cl)cc4)cc3)c2c1 [Compound 9v, N-(4-((4-chlorobenzyl)oxy)benzyl)-6-methoxy-2-methylquinolin-4-amine] | 259 to 261 °C | 11.9 µM |  |  | 
13 | CCc1cc(NCc2ccc(OCc3ccc(Cl)cc3)cc2)c2cc(Br)ccc2n1 [Compound 9t, N-(4-((4-chlorobenzyl)oxy)benzyl)-6-bromo-2-ethylquinolin-4-amine] | 122 to 124 °C | 5.2 µM |  |  | 1.9 fold
14 | Cc1cc(NCc2ccc(OCc3ccc(F)c(F)c3)cc2)c2cc(Br)ccc2n1 [Compound 9p, N-(4-((3,4-difluorobenzyl)oxy)benzyl) 6-bromo-2-methylquinolin-4-amine] | 142 to 144 °C | 5.3 µM |  |  | 
15 | COc1cc(COc2ccc(CNc3cc(C)nc4ccc(Cl)cc34)cc2)cc(OC)c1 [Compound 9l, N-(4-((3,5-dimethoxybenzyl)oxy)benzyl)-6-chloro-2-methylquinolin-4-amine] | 147 to 149 °C | 5.7 µM |  |  | 
16 | Cc1cc(NCc2ccc(OCc3ccc(Cl)cc3)cc2)c2cc(Cl)ccc2n1 [Compound 9h, N-(4-((4-chlorobenzyl)oxy)benzyl) 6-chloro-2-methylquinolin-4-amine] | 177 to 179 °C | 5.9 µM |  |  | 
17 | Cc1cc(NCc2ccc(OCc3ccc(F)c(F)c3)cc2)c2cc(Cl)ccc2n1 [Compound 9j, N-(4-((3,4-difluorobenzyl)oxy)benzyl)-6-chloro-2-methylquinolin-4-amine] | 137 to 139 °C | 5.9 µM |  |  | 
18 | COc1cc(COc2ccc(CNc3cc(C)nc4ccc(Br)cc34)cc2)cc(OC)c1 [Compound 9r, N-(4-((3,5-dimethoxybenzyl)oxy)benzyl)-6-bromo-2-methylquinolin-4-amine] | 151 to 153 °C | 5.1 µM |  |  | 
19 | COc1ccc2nc(C)cc(NCc3ccc(OCc4ccc(C(C)C)cc4)cc3)c2c1 [Compound 9w, N-(4-((4-isopropylbenzyl)oxy)benzyl)-6-methoxy-2-methylquinolin-4-amine] | 133 to 135 °C | 23.4 µM |  |  | 
20 | NNC(=O)c1ccncc1 [INH, isoniazid, reference compound] |  | 2.3 µM |  |  | 
21 | COc1ccc2nc(C)cc(NCc3ccc(OCc4ccc(F)c(F)c4)cc3)c2c1 [Compound 9y, N-(4-((3,4-difluorobenzyl)oxy)benzyl)-6-methoxy-2-methylquinolin-4-amine] | 104 to 106 °C | 5.9 µM |  |  | 
22 | COc1ccc2nc(C)cc(NCc3ccc(OCc4ccccc4)cc3)c2c1 [Compound 9u, N-(4-(benzyloxy)benzyl)-6-methoxy-2-methylquinolin-4-amine] | 96 to 98 °C | 13 µM |  |  | 
23 | Cc1cc(NCc2ccc(OCc3ccc(C(C)C)cc3)cc2)c2ccccc2n1 [Compound 9e, N-(4-((4-isopropylbenzyl)oxy)benzyl)-2-methylquinolin-4-amine] | 95 to 97 °C | 27 µM |  |  | 
24 | Cc1cc(NCc2ccc(OCc3ccc(F)c(F)c3)cc2)c2ccccc2n1 [Compound 9d, N-(4-((3,4-difluorobenzyl)oxy)benzyl)-2-methylquinolin-4-amine] | 199 to 201 °C | 25.6 µM |  |  | 
25 | Cc1cc(NCc2ccc(OCc3ccc(F)cc3)cc2)c2cc(Cl)ccc2n1 [Compound 9i, N-(4-((4-fluorobenzyl)oxy)benzyl) 6-chloro-2-methylquinolin-4-amine] | 170 to 172 °C | 6.1 µM |  |  | 
26 | Cc1cc(NCc2ccc(OCc3ccc(Cl)cc3)cc2)c2ccccc2n1 [Compound 9b, N-(4-((4-chlorobenzyl)oxy)benzyl)-2-methylquinolin-4-amine] | 111 to 113 °C | > 12.9 µM | inactive |  | 
